# Measurements: PubChem BioAssay AID1963425 (Molecular Pharmacology Branch, DTP, NCI, 2024)
# Test system: 323965-272-R-J2-PDC complex spheroid growth, % test/control
# Experiment: Anticancer human tumor 323965-272-R-J2-PDC patient-derived pancreatic carcinoma cell line growth inhibition [Asc]
# Details: for IC50: curve of first compound; for viability, T/C: stronger effect = lower value
# Summary of the method: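 Concentration series start at each agent's clinical Cmax, or at 10 microM when none is established, and drop in half-log steps; agents are applied alone or together to complex spheroids built with HUVEC and hMSC.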
# [1] = second compound 0.00949 µM, first compound 0.0316 µM
# [2] = second compound 0.00949 µM, first compound 0.1 µM
# [3] = second compound 0.00949 µM, first compound 0.316 µM
# [4] = second compound 0.00949 µM, first compound 1 µM
# [5] = second compound 0.00949 µM, first compound 3.16 µM
# [6] = second compound 0.00949 µM, first compound 10 µM
# [7] = second compound 0.03 µM, first compound 0.0316 µM
# [8] = second compound 0.03 µM, first compound 0.1 µM
# [9] = second compound 0.03 µM, first compound 0.316 µM
# [10] = second compound 0.03 µM, first compound 1 µM
# [11] = second compound 0.03 µM, first compound 3.16 µM
# [12] = second compound 0.03 µM, first compound 10 µM
# [13] = second compound 0.0949 µM, first compound 0.0316 µM
# [14] = second compound 0.0949 µM, first compound 0.1 µM
# [15] = second compound 0.0949 µM, first compound 0.316 µM
# [16] = second compound 0.0949 µM, first compound 1 µM
# [17] = second compound 0.0949 µM, first compound 3.16 µM
# [18] = second compound 0.0949 µM, first compound 10 µM
# [19] = second compound 0.3 µM, first compound 0.0316 µM
# [20] = second compound 0.3 µM, first compound 0.1 µM
# [21] = second compound 0.3 µM, first compound 0.316 µM
# [22] = second compound 0.3 µM, first compound 1 µM
# [23] = second compound 0.3 µM, first compound 3.16 µM
# [24] = second compound 0.3 µM, first compound 10 µM
# [25] = second compound 0.949 µM, first compound 0.0316 µM
# [26] = second compound 0.949 µM, first compound 0.1 µM
# [27] = second compound 0.949 µM, first compound 0.316 µM
# [28] = second compound 0.949 µM, first compound 1 µM
# [29] = second compound 0.949 µM, first compound 3.16 µM
# [30] = second compound 0.949 µM, first compound 10 µM
# [31] = second compound 3 µM, first compound 0.0316 µM
# [32] = second compound 3 µM, first compound 0.1 µM
# [33] = second compound 3 µM, first compound 0.316 µM
# [34] = second compound 3 µM, first compound 1 µM
# [35] = second compound 3 µM, first compound 3.16 µM
# [36] = second compound 3 µM, first compound 10 µM
# 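Further: compound exposure lasted 7 days starting three days after spheroid seeding.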
# 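Wherever viability, T/C is given: 100% = DMSO vehicle control wells with viability set relative to vehicle.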
smiles,measurement,setting,value
C#Cc1c(F)ccc2cc(O)cc(-c3ncc4c(N5CC6CCC(C5)N6)nc(OCC56CCCN5CC(F)C6)nc4c3F)c12 (stereo not drawn) + CCN1C(C(=O)NC23CCC(C(=O)O)(CC2)CC3)C(c2cccc(Cl)c2F)C2(C(=O)Nc3cc(Cl)ccc32)C12CCCCC2,IC50,second compound 0.00949 µM,> 10 µM
same,IC50,second compound 0.03 µM,> 10 µM
same,IC50,second compound 0.0949 µM,> 10 µM
same,IC50,second compound 0.3 µM,> 10 µM
same,IC50,second compound 0.949 µM,> 10 µM
same,IC50,second compound 3 µM,> 10 µM
same,"viability, T/C",[1],100%
same,"viability, T/C",[2],100%
same,"viability, T/C",[3],98.2%
same,"viability, T/C",[4],92.6%
same,"viability, T/C",[5],81.2%
same,"viability, T/C",[6],59.4%
same,"viability, T/C",[7],107%
same,"viability, T/C",[8],102%
same,"viability, T/C",[9],102%
same,"viability, T/C",[10],106%
same,"viability, T/C",[11],83.8%
same,"viability, T/C",[12],63.1%
same,"viability, T/C",[13],104%
same,"viability, T/C",[14],108%
same,"viability, T/C",[15],94.1%
same,"viability, T/C",[16],88.9%
same,"viability, T/C",[17],70.8%
same,"viability, T/C",[18],64.2%
same,"viability, T/C",[19],105%
same,"viability, T/C",[20],110%
same,"viability, T/C",[21],112%
same,"viability, T/C",[22],91.9%
same,"viability, T/C",[23],78.6%
same,"viability, T/C",[24],59.8%
same,"viability, T/C",[25],101%
same,"viability, T/C",[26],104%
same,"viability, T/C",[27],102%
same,"viability, T/C",[28],89.7%
same,"viability, T/C",[29],79.3%
same,"viability, T/C",[30],64.8%
same,"viability, T/C",[31],102%
same,"viability, T/C",[32],102%
same,"viability, T/C",[33],97.8%
same,"viability, T/C",[34],84.7%
same,"viability, T/C",[35],63.1%
same,"viability, T/C",[36],67.9%
C=C(F)C(=O)N1CCN(c2nc(OCC3CCCN3C)nc3c2CCN(c2cccc4cccc(Cl)c24)C3)CC1CC#N (stereo not drawn) + CCN1C(C(=O)NC23CCC(C(=O)O)(CC2)CC3)C(c2cccc(Cl)c2F)C2(C(=O)Nc3cc(Cl)ccc32)C12CCCCC2,IC50,second compound 0.00949 µM,> 10 µM
same,IC50,second compound 0.03 µM,5.59 µM
same,IC50,second compound 0.0949 µM,5.62 µM
same,IC50,second compound 0.3 µM,5.79 µM
same,IC50,second compound 0.949 µM,5.21 µM
same,IC50,second compound 3 µM,4.67 µM
same,"viability, T/C",[1],62.2%
same,"viability, T/C",[2],64%
same,"viability, T/C",[3],61.5%
same,"viability, T/C",[4],58.6%
same,"viability, T/C",[5],85.7%
same,"viability, T/C",[6],32.8%
same,"viability, T/C",[7],79%
same,"viability, T/C",[8],65.3%
same,"viability, T/C",[9],59.7%
same,"viability, T/C",[10],61.2%
same,"viability, T/C",[11],81.8%
same,"viability, T/C",[12],30.2%
same,"viability, T/C",[13],73.4%
same,"viability, T/C",[14],60%
same,"viability, T/C",[15],60.5%
same,"viability, T/C",[16],63.7%
same,"viability, T/C",[17],74.3%
same,"viability, T/C",[18],33.5%
same,"viability, T/C",[19],81.1%
same,"viability, T/C",[20],64.4%
same,"viability, T/C",[21],65%
same,"viability, T/C",[22],66.3%
same,"viability, T/C",[23],74.8%
same,"viability, T/C",[24],31.8%
same,"viability, T/C",[25],73.4%
same,"viability, T/C",[26],65.9%
same,"viability, T/C",[27],63.8%
same,"viability, T/C",[28],62.7%
same,"viability, T/C",[29],83.8%
same,"viability, T/C",[30],24.1%
same,"viability, T/C",[31],70.7%
same,"viability, T/C",[32],57%
same,"viability, T/C",[33],61%
same,"viability, T/C",[34],71.9%
same,"viability, T/C",[35],82.3%
same,"viability, T/C",[36],13.8%
C=CC(=O)N1CCN(c2nc(=O)n(-c3c(C)ccnc3C(C)C)c3nc(-c4c(O)cccc4F)c(F)cc23)C(C)C1 (stereo not drawn) + CCN1C(C(=O)NC23CCC(C(=O)O)(CC2)CC3)C(c2cccc(Cl)c2F)C2(C(=O)Nc3cc(Cl)ccc32)C12CCCCC2,IC50,second compound 0.00949 µM,> 10 µM
same,IC50,second compound 0.03 µM,> 10 µM
same,IC50,second compound 0.0949 µM,> 10 µM
same,IC50,second compound 0.3 µM,> 10 µM
same,IC50,second compound 0.949 µM,> 10 µM
same,IC50,second compound 3 µM,> 10 µM
same,"viability, T/C",[1],82%
same,"viability, T/C",[2],73.5%
same,"viability, T/C",[3],60.5%
same,"viability, T/C",[4],64.8%
same,"viability, T/C",[5],68.7%
same,"viability, T/C",[6],59.1%
same,"viability, T/C",[7],75.4%
same,"viability, T/C",[8],70.1%
same,"viability, T/C",[9],68.7%
same,"viability, T/C",[10],68.7%
same,"viability, T/C",[11],65.8%
same,"viability, T/C",[12],65.6%
same,"viability, T/C",[13],80.7%
same,"viability, T/C",[14],67.2%
same,"viability, T/C",[15],62.8%
same,"viability, T/C",[16],73%
same,"viability, T/C",[17],66.2%
same,"viability, T/C",[18],61.8%
same,"viability, T/C",[19],75.1%
same,"viability, T/C",[20],73.2%
same,"viability, T/C",[21],65.6%
same,"viability, T/C",[22],60.9%
same,"viability, T/C",[23],67.7%
same,"viability, T/C",[24],63.2%
same,"viability, T/C",[25],84.7%
same,"viability, T/C",[26],68.3%
same,"viability, T/C",[27],62.8%
same,"viability, T/C",[28],69.8%
same,"viability, T/C",[29],73.7%
same,"viability, T/C",[30],61.7%
same,"viability, T/C",[31],79.3%
same,"viability, T/C",[32],71.5%
same,"viability, T/C",[33],61%
same,"viability, T/C",[34],68.1%
same,"viability, T/C",[35],65.8%
same,"viability, T/C",[36],58.6%
CNC(C)C(=O)NC1CN(S(=O)(=O)c2cccc(S(=O)(=O)N3CCC4CCC(C(=O)NC(c5ccccc5)c5ccccc5)N4C(=O)C(NC(=O)C(C)NC)C3)c2)CCC2CCC(C(=O)NC(c3ccccc3)c3ccccc3)N2C1=O (stereo not drawn) + CCN1C(C(=O)NC23CCC(C(=O)O)(CC2)CC3)C(c2cccc(Cl)c2F)C2(C(=O)Nc3cc(Cl)ccc32)C12CCCCC2,IC50,second compound 0.00949 µM,> 1 µM
same,IC50,second compound 0.03 µM,> 1 µM
same,IC50,second compound 0.0949 µM,> 1 µM
same,IC50,second compound 0.3 µM,> 1 µM
same,IC50,second compound 0.949 µM,> 1 µM
same,IC50,second compound 3 µM,> 1 µM
same,"viability, T/C","second compound 0.00949 µM, first compound 0.00316 µM",110%
same,"viability, T/C","second compound 0.00949 µM, first compound 0.01 µM",106%
same,"viability, T/C",[1],96.8%
same,"viability, T/C",[2],103%
same,"viability, T/C",[3],109%
same,"viability, T/C",[4],105%
same,"viability, T/C","second compound 0.03 µM, first compound 0.00316 µM",102%
same,"viability, T/C","second compound 0.03 µM, first compound 0.01 µM",99%
same,"viability, T/C",[7],105%
same,"viability, T/C",[8],105%
same,"viability, T/C",[9],113%
same,"viability, T/C",[10],106%
same,"viability, T/C","second compound 0.0949 µM, first compound 0.00316 µM",118%
same,"viability, T/C","second compound 0.0949 µM, first compound 0.01 µM",103%
same,"viability, T/C",[13],103%
same,"viability, T/C",[14],95%
same,"viability, T/C",[15],106%
same,"viability, T/C",[16],99.5%
same,"viability, T/C","second compound 0.3 µM, first compound 0.00316 µM",123%
same,"viability, T/C","second compound 0.3 µM, first compound 0.01 µM",113%
same,"viability, T/C",[19],107%
same,"viability, T/C",[20],92.8%
same,"viability, T/C",[21],104%
same,"viability, T/C",[22],102%
same,"viability, T/C","second compound 0.949 µM, first compound 0.00316 µM",112%
same,"viability, T/C","second compound 0.949 µM, first compound 0.01 µM",107%
same,"viability, T/C",[25],96.2%
same,"viability, T/C",[26],104%
same,"viability, T/C",[27],95.1%
same,"viability, T/C",[28],88.5%
same,"viability, T/C","second compound 3 µM, first compound 0.00316 µM",98.9%
same,"viability, T/C","second compound 3 µM, first compound 0.01 µM",109%
same,"viability, T/C",[31],90.3%
same,"viability, T/C",[32],101%
same,"viability, T/C",[33],89.5%
same,"viability, T/C",[34],95.2%
